For eleven molecules, IC50 and CC50 results are on record in ChEMBL document CHEMBL1130710, “Design and synthesis of a novel class of nucleotide analogs with anti-HCMV activity” (Bioorg Med Chem Lett, 1998).

In brackets after ≈: the same amount, converted by molar mass. Several values for one entry are separate records, joined by “and”; a condition that tells them apart may be missing. Identical values can stand only once.

As a reminder, the IC50 is the concentration at which inhibition is half-maximal.

For assay [1], the system named is F2002 cell line. Description: (§1) Anti-HCMV activity against F2002 cell line. The format is functional, cell-based, Homo sapiens.
The subject of assay [2] is F2002 cell line. The description is as §1. The format is functional. Particulars: Homo sapiens, read-out: CD50 (the source's name).
For assay [3], the system named is F2002 cell line. Description: Compound was tested for Anti-HCMV activity against F2002 cell line(exp 1). The note with it: Homo sapiens. The format is functional, cell-based.
In assay [4] the test system is F2002 cell line. Description: Compound was tested for Anti-HCMV activity against F2002 cell line(exp 2). In kind it is functional, cell-based. The note with it: Homo sapiens.
Where [5] appears, read: Homo sapiens, F2002, read-out: IC50.

With `N.Nc1nc(O)c2ncn(C[C@@H]3CO[C@H](P(=O)(O)O)O3)c2n1`, the IC50 in the assay on F2002 cell line [1] (f2002) was 45 µg/mL and > 100 µg/mL.

As to `Nc1ccn(CC2COC(P(=O)(O)O)O2)c(=O)n1` (stereo unspecified), the half-inhibitory concentration (IC50) with F2002 cell line [1] (setting [5]) was greater than 100 µg/mL. In the assay on F2002 cell line [2], the CC50 was greater than 100 µg/mL.

Take `N.Nc1nc(O)c2ncn(C[C@H]3CO[C@H](P(=O)(O)O)O3)c2n1`: the IC50 in the assay on F2002 cell line [1] (setting [5]) was greater than 30 µg/mL. Further, the CC50 in the assay with F2002 cell line [2] is greater than 30 µg/mL.

In turn, `Nc1nc(O)c2ncn(CC3COC(P(=O)(O)O)O3)c2n1` (stereo in doubt; 7a) displayed a concentration for half-maximal inhibition (IC50) in the assay on F2002 cell line [1] (f2002) of 20 µg/mL (≈ 63.1 µM).

Consider `N.Nc1nc(O)c2ncn(C[C@H]3CO[C@@H](P(=O)(O)O)O3)c2n1`, for which the IC50 with F2002 cell line [1] (setting [5]) is greater than 100 µg/mL. In the assay on F2002 cell line [2], the CC50 was greater than 100 µg/mL.

Molecule `Nc1nc(O)c2ncn(CC3COC(P(=O)(O)O)O3)c2n1` (stereo in doubt; 7b) came in with an IC50 in the assay on F2002 cell line [1] (f2002) greater than 100 µg/mL. In the assay on F2002 cell line [2], the CC50 is greater than 100 µg/mL.

As for `Nc1nc2c(ncn2COC(CO)CO)c(=O)[nH]1` [GANCICLOVIR], the IC50 in the assay on F2002 cell line [3] worked out at 0.1 µg/mL (≈ 0.392 µM); in the assay on F2002 cell line [4] it was 0.2 µg/mL (≈ 0.784 µM). Further, the CC50 in the assay on F2002 cell line [2] is greater than 100 µg/mL.

As to `N.O=c1ccn(CC2COC(P(=O)(O)O)O2)c(=O)[nH]1` (stereo unspecified), the IC50 in the assay on F2002 cell line [1] (setting [5]) is greater than 100 µg/mL. Besides, the CC50 in the assay on F2002 cell line [2] is greater than 100 µg/mL.

On to `Cc1cn(CC2COC(P(=O)(O)O)O2)c(=O)[nH]c1=O` (stereo unspecified), for which, in the assay on F2002 cell line [1] (setting [5]), the 50% inhibitory concentration (IC50) is greater than 100 µg/mL. For the same molecule, the CC50 with F2002 cell line [2] is greater than 100 µg/mL.

Turning to `N.Nc1nc(O)c2ncn(C[C@@H]3CO[C@@H](P(=O)(O)O)O3)c2n1`, the IC50 in the assay with F2002 cell line [1] (setting [5]) was greater than 100 µg/mL. Moreover, the CC50 with F2002 cell line [2] is greater than 100 µg/mL.

`Nc1ncnc2c1ncn2CC1COC(P(=O)(O)O)O1` (stereo unspecified): the IC50 with F2002 cell line [1] (setting [5]) is greater than 100 µg/mL. In addition, the CC50 in the assay on F2002 cell line [2] is greater than 100 µg/mL.
